Results reported in PubChem BioAssay AID248 (DTP/NCI, 2004).
Values joined by “and” are separate entries in the source; they are usually repeats but may differ in a detail not shown here. Identical values can stand only once. Toxic doses and inconclusive results are not listed.

Tested on: L1210 leukemia ip in BDF1 mice, survival T/C
Test: NCI In Vivo Anticancer Drug Screen. Data for tumor model L1210 Leukemia (intraperitoneal) in B6D2F1 (BDF1) mice
Conditions: higher = longer survival
How it was run: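 Survival endpoint. Drug-treated group vs vehicle group, expressed as T divided by C. Tumor passaged by transplantation.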

[1] = endpoint: mean survival time, dose: 100.0 mg/kg/injection, schedule: Q04DX003 (ip), vehicle: saline
[2] = endpoint: mean survival time, dose: 100.0 mg/kg/injection, schedule: Q04DX003 (ip), vehicle: Klucel (hydroxypropylcellulose) (HPC)
[3] = endpoint: mean survival time, dose: 200.0 mg/kg/injection, schedule: Q04DX003 (ip), vehicle: Klucel (hydroxypropylcellulose) (HPC)
[4] = endpoint: mean survival time, dose: 400.0 mg/kg/injection, schedule: Q04DX003 (ip), vehicle: Klucel (hydroxypropylcellulose) (HPC)
[5] = endpoint: mean survival time, dose: 100.0 mg/kg/injection, schedule: Q01DX009 (ip), vehicle: saline with Tween-80
[6] = endpoint: mean survival time, dose: 200.0 mg/kg/injection, schedule: Q01DX009 (ip), vehicle: saline with Tween-80
[7] = endpoint: mean survival time, dose: 400.0 mg/kg/injection, schedule: Q01DX009 (ip), vehicle: saline with Tween-80
[8] = endpoint: mean survival time, dose: 50.0 mg/kg/injection, schedule: Q01DX001 (ip), vehicle: carboxymethylcellulose (CMC)
[9] = endpoint: mean survival time, dose: 100.0 mg/kg/injection, schedule: Q01DX001 (ip), vehicle: carboxymethylcellulose (CMC)
[10] = endpoint: mean survival time, dose: 200.0 mg/kg/injection, schedule: Q01DX001 (ip), vehicle: carboxymethylcellulose (CMC)
[11] = endpoint: mean survival time, dose: 400.0 mg/kg/injection, schedule: Q01DX001 (ip), vehicle: carboxymethylcellulose (CMC)
[12] = endpoint: mean survival time, dose: 100.0 mg/kg/injection, schedule: Q04DX003 (ip), vehicle: saline with Tween-80
[13] = endpoint: mean survival time, dose: 200.0 mg/kg/injection, schedule: Q04DX003 (ip), vehicle: saline with Tween-80
[14] = endpoint: mean survival time, dose: 400.0 mg/kg/injection, schedule: Q04DX003 (ip), vehicle: saline with Tween-80

C[C@H](CN1CC(=O)NC(=O)C1)N1CC(=O)NC(=O)C1
T/C (endpoint: mean survival time, dose: 25.0 mg/kg/injection, schedule: Q04DX003 (ip), vehicle: saline): 124 % of control
T/C (endpoint: mean survival time, dose: 25.0 mg/kg/injection, schedule: Q04DX003 (ip), vehicle: water): 104 % of control
T/C (endpoint: mean survival time, dose: 50.0 mg/kg/injection, schedule: Q04DX003 (ip), vehicle: saline): 117 % of control
T/C (endpoint: mean survival time, dose: 50.0 mg/kg/injection, schedule: Q04DX003 (ip), vehicle: water): 110 % of control
T/C [1]: 117 % of control
T/C (endpoint: mean survival time, dose: 200.0 mg/kg/injection, schedule: Q04DX003 (ip), vehicle: saline): 158 % of control
T/C (endpoint: mean survival time, dose: 200.0 mg/kg/injection, schedule: Q04DX003 (ip), vehicle: water): 152 % of control
T/C (endpoint: mean survival time, dose: 400.0 mg/kg/injection, schedule: Q04DX003 (ip), vehicle: saline): 182 % of control
T/C (endpoint: mean survival time, dose: 400.0 mg/kg/injection, schedule: Q04DX003 (ip), vehicle: water): 184 % of control
T/C (endpoint: mean survival time, dose: 800.0 mg/kg/injection, schedule: Q04DX003 (ip), vehicle: saline): 187 % of control
T/C (endpoint: mean survival time, dose: 800.0 mg/kg/injection, schedule: Q04DX003 (ip), vehicle: water): 107 % of control
T/C (endpoint: median survival time, dose: 8.0 mg/kg/injection, schedule: Q03HX008 (ip), vehicle: saline): 153 % of control
T/C (endpoint: median survival time, dose: 8.0 mg/kg/injection, schedule: Q03HX016 (ip), vehicle: saline): 204 % of control
T/C (endpoint: median survival time, dose: 16.0 mg/kg/injection, schedule: Q01DX009 (sc), vehicle: saline): 152 % of control
T/C (endpoint: median survival time, dose: 16.0 mg/kg/injection, schedule: Q03HX008 (ip), vehicle: saline): 163 % of control
T/C (endpoint: median survival time, dose: 16.0 mg/kg/injection, schedule: Q03HX016 (ip), vehicle: saline): 203 % of control
T/C (endpoint: median survival time, dose: 16.0 mg/kg/injection, schedule: Q03HX024 (ip), vehicle: saline): 98 % of control
T/C (endpoint: median survival time, dose: 32.0 mg/kg/injection, schedule: Q01DX009 (sc), vehicle: saline): 156 % of control
T/C (endpoint: median survival time, dose: 32.0 mg/kg/injection, schedule: Q03HX008 (ip), vehicle: saline): 160 % of control
T/C (endpoint: median survival time, dose: 32.0 mg/kg/injection, schedule: Q03HX024 (ip), vehicle: saline): 94 % of control
T/C (endpoint: median survival time, dose: 64.0 mg/kg/injection, schedule: Q01DX001 (ip), vehicle: saline): 102 % of control
T/C (endpoint: median survival time, dose: 64.0 mg/kg/injection, schedule: Q01DX009 (sc), vehicle: saline): 110 % of control
T/C (endpoint: median survival time, dose: 64.0 mg/kg/injection, schedule: Q04DX003 (ip), vehicle: saline): 108 % of control
T/C (endpoint: median survival time, dose: 64.0 mg/kg/injection, schedule: Q04DX003 (sc), vehicle: saline): 121 % of control
T/C (endpoint: median survival time, dose: 64.0 mg/kg/injection, schedule: Q08DX002 (ip), vehicle: saline): 109 % of control
T/C (endpoint: median survival time, dose: 128.0 mg/kg/injection, schedule: Q01DX001 (ip), vehicle: saline): 107 % of control
T/C (endpoint: median survival time, dose: 128.0 mg/kg/injection, schedule: Q01DX009 (sc), vehicle: saline): 93 % of control
T/C (endpoint: median survival time, dose: 128.0 mg/kg/injection, schedule: Q03HX008 (ip), vehicle: saline): 152 % of control
T/C (endpoint: median survival time, dose: 128.0 mg/kg/injection, schedule: Q04DX003 (ip), vehicle: saline): 124 % of control
T/C (endpoint: median survival time, dose: 128.0 mg/kg/injection, schedule: Q08DX002 (ip), vehicle: saline): 107 % of control
T/C (endpoint: median survival time, dose: 256.0 mg/kg/injection, schedule: Q01DX001 (ip), vehicle: saline): 109 % of control
T/C (endpoint: median survival time, dose: 256.0 mg/kg/injection, schedule: Q04DX003 (sc), vehicle: saline): 172 % of control
T/C (endpoint: median survival time, dose: 512.0 mg/kg/injection, schedule: Q01DX001 (ip), vehicle: saline): 120 % of control
T/C (endpoint: median survival time, dose: 512.0 mg/kg/injection, schedule: Q04DX003 (ip), vehicle: saline): 157 % of control
T/C (endpoint: median survival time, dose: 512.0 mg/kg/injection, schedule: Q04DX003 (sc), vehicle: saline): 202 % of control
T/C (endpoint: median survival time, dose: 512.0 mg/kg/injection, schedule: Q08DX002 (ip), vehicle: saline): 121 % of control
T/C (endpoint: median survival time, dose: 1024.0 mg/kg/injection, schedule: Q04DX003 (ip), vehicle: saline): 193 % of control
T/C (endpoint: median survival time, dose: 1024.0 mg/kg/injection, schedule: Q04DX003 (sc), vehicle: saline): 180 % of control
T/C (endpoint: median survival time, dose: 1024.0 mg/kg/injection, schedule: Q08DX002 (ip), vehicle: saline): 179 % of control

CC(C)N=Cc1ccccc1O.CC(C)N=Cc1ccccc1O.[Zn]
T/C (endpoint: mean survival time, dose: 100.0 mg/kg/injection, schedule: Q01DX009 (ip), vehicle: saline sonified): 91 % of control
T/C [2]: 88 % of control
T/C (endpoint: mean survival time, dose: 200.0 mg/kg/injection, schedule: Q01DX009 (ip), vehicle: saline sonified): 92 % of control
T/C [3]: 89 % of control
T/C (endpoint: mean survival time, dose: 400.0 mg/kg/injection, schedule: Q01DX009 (ip), vehicle: saline sonified): 96 % of control
T/C [4]: 93 % of control

CCOC(=O)CNC(=O)Oc1ccc(NC(C)=O)cc1
T/C [5]: 100 % of control
T/C [6]: 95 % of control
T/C [7]: 108 % of control

O=C(CN1CCOCC1)N1CCN(C(=O)CN2CCOCC2)CC1
T/C [8]: 92 % of control
T/C [9]: 97 % of control
T/C [10]: 95 % of control
T/C [11]: 101 % of control

CC(=O)Nc1ccc(-c2ccc(C)cc2)cc1
T/C [12]: 104 % of control
T/C [13]: 106 % of control
T/C [14]: 95 % of control

CC1(C(N)=O)CCC(C(=O)O)C1(C)C (stereo not drawn)
T/C [8]: 103 % of control
T/C [9]: 109 % of control
T/C [10]: 103 % of control
T/C [11]: 103 % of control

CC(CC(=O)c1ccccc1)C(C(=O)c1ccccc1)c1ccccc1 (stereo not drawn)
T/C (endpoint: mean survival time, dose: 50.0 mg/kg/injection, schedule: Q01DX009 (ip), vehicle: other): 101 % of control
T/C (endpoint: mean survival time, dose: 100.0 mg/kg/injection, schedule: Q01DX009 (ip), vehicle: other): 101 % of control
T/C (endpoint: mean survival time, dose: 200.0 mg/kg/injection, schedule: Q01DX009 (ip), vehicle: other): 101 % of control

CCCCCCC(C)OCC(=O)c1ccccc1 (stereo not drawn)
T/C (endpoint: mean survival time, dose: 100.0 mg/kg/injection, schedule: Q04DX002 (ip), vehicle: saline): 94 % of control
T/C (endpoint: mean survival time, dose: 200.0 mg/kg/injection, schedule: Q04DX002 (ip), vehicle: saline): 91 % of control

Cc1cccc(NC(=O)CCl)c1
T/C (endpoint: mean survival time, dose: 25.0 mg/kg/injection, schedule: Q01DX009 (ip), vehicle: Klucel (hydroxypropylcellulose) (HPC)): 94 % of control
T/C (endpoint: mean survival time, dose: 50.0 mg/kg/injection, schedule: Q01DX009 (ip), vehicle: Klucel (hydroxypropylcellulose) (HPC)): 87 % of control
T/C (endpoint: mean survival time, dose: 100.0 mg/kg/injection, schedule: Q01DX009 (ip), vehicle: Klucel (hydroxypropylcellulose) (HPC)): 103 % of control and 92 % of control
T/C [2]: 103 % of control
T/C [3]: 96 % of control and 86 % of control
T/C [4]: 99 % of control

O=C1/C(=C\c2cccc3ccccc23)COC/C1=C/c1cccc2ccccc12
T/C (endpoint: mean survival time, dose: 100.0 mg/kg/injection, schedule: Q01DX009 (ip), vehicle: saline): 93 % of control
T/C (endpoint: mean survival time, dose: 200.0 mg/kg/injection, schedule: Q01DX009 (ip), vehicle: saline): 97 % of control
T/C (endpoint: mean survival time, dose: 400.0 mg/kg/injection, schedule: Q01DX009 (ip), vehicle: saline): 98 % of control

CC1CCN(C(=S)[S-])CC1.CC1CCN(C(=S)[S-])CC1.[Zn]
T/C (endpoint: mean survival time, dose: 12.5 mg/kg/injection, schedule: Q01DX009 (ip), vehicle: saline): 111 % of control
T/C (endpoint: mean survival time, dose: 25.0 mg/kg/injection, schedule: Q01DX009 (ip), vehicle: saline): 107 % of control
T/C (endpoint: mean survival time, dose: 50.0 mg/kg/injection, schedule: Q01DX009 (ip), vehicle: saline): 100 % of control
T/C [1]: 103 % of control

CCCCNC(=O)Nc1ccc(N(CC)CC)cc1
T/C [5]: 101 % of control
T/C [12]: 94 % of control
T/C [6]: 88 % of control
T/C [13]: 97 % of control
T/C [7]: 90 % of control
T/C [14]: 100 % of control

CC1(C)C=CS1(=O)=O
T/C (endpoint: mean survival time, dose: 50.0 mg/kg/injection, schedule: Q01DX009 (ip), vehicle: saline with Tween-80): 98 % of control
T/C [5]: 102 % of control
T/C [6]: 95 % of control

COC(=O)N(CCCCN(N=O)C(=O)OC)N=O
T/C (endpoint: mean survival time, dose: 100.0 mg/kg/injection, schedule: Q04DX002 (ip), vehicle: Klucel (hydroxypropylcellulose) (HPC)): 101 % of control
T/C (endpoint: mean survival time, dose: 200.0 mg/kg/injection, schedule: Q04DX002 (ip), vehicle: Klucel (hydroxypropylcellulose) (HPC)): 108 % of control
